Measurements from PubChem BioAssay (NCI).
“And” between values parts separate entries of the source, which are not always exact repeats. Equal entries are not always repeated.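 Briefly, cells in 96-well plates were exposed to five compound concentrations for 48 h, and endpoints were estimated by linear interpolation. GI50 is the concentration that inhibits growth by half. At the TGI there is no net growth.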

Tests used:
Experiment in all cases: DTP human tumour cell line panel, 48 h
KM20L2 colon = system: KM20L2 colon
NCI-H226 lung = system: NCI-H226 lung
DLD-1 colon = system: DLD-1 colon
A498 renal = system: A498 renal
U251 CNS = system: U251 CNS
SNB-19 CNS = system: SNB-19 CNS
SN12C renal = system: SN12C renal
OVCAR-4 ovarian = system: OVCAR-4 ovarian
DU-145 prostate = system: DU-145 prostate
PC-3 prostate = system: PC-3 prostate

SMILES | TGI (KM20L2 colon) | TGI (NCI-H226 lung) | TGI (DLD-1 colon) | TGI (A498 renal) | TGI (U251 CNS) | TGI (SNB-19 CNS) | TGI (SN12C renal) | TGI (OVCAR-4 ovarian) | TGI (DU-145 prostate) | TGI (PC-3 prostate) | GI50 (NCI-H226 lung) | GI50 (DLD-1 colon) | GI50 (U251 CNS) | GI50 (SNB-19 CNS) | GI50 (OVCAR-4 ovarian) | GI50 (SN12C renal) | GI50 (KM20L2 colon) | GI50 (A498 renal)
Nc1cc(=O)n(-c2ccccc2)c(=S)n1-c1ccccc1 | > 100 µM | > 100 µM | > 100 µM | > 100 µM | > 100 µM | > 100 µM | > 100 µM |  |  |  |  |  |  |  |  |  |  | 
COc1ccccc1NC(=O)c1nc2ccc([N+](=O)[O-])cc2nc1C | > 100 µM | > 100 µM | > 100 µM | > 100 µM | > 100 µM | > 100 µM | > 100 µM | > 100 µM |  |  |  |  |  |  |  |  |  | 
N/N=c1\c2ccccc2c2cc3c(cc12)/c(=N/N)c1ccccc13 | > 100 µM | > 100 µM | > 100 µM |  | > 100 µM | > 100 µM | > 100 µM | > 100 µM |  |  |  |  |  |  |  |  |  | 
OCc1c[te]c(-c2ccccc2)c1 | > 100 µM | 85.1 µM | > 100 µM | > 100 µM | > 100 µM |  | 78.7 µM | > 100 µM |  |  |  |  |  |  |  |  |  | 
Cc1ccc(S(=O)OCC23CC4CC(CC(C4)C2)C3)cc1 (configuration not stated) | > 100 µM | > 100 µM | > 100 µM | > 100 µM | > 100 µM | > 100 µM | > 100 µM | > 100 µM |  |  |  |  |  |  |  |  |  | 
CC(=O)NC1C(OCc2ccccc2)OC(COC(=O)CCCCCCCCCCNc2ccc([N+](=O)[O-])c3[nH]c4ccccc4c(=O)c23)C(O)C1OC(C)C(=O)NC(C)C(=O)NC(CCC(N)=O)C(=O)OCc1ccccc1 (configuration not stated) | > 100 µM | > 100 µM | > 100 µM | > 100 µM | > 100 µM | > 100 µM | > 100 µM | > 100 µM |  |  |  |  |  |  |  |  |  | 
COC(=O)C(Cc1nc2ccccc2nc1C)/C(=N\NC(N)=O)C(=O)Nc1cccc([N+](=O)[O-])c1 (configuration not stated) | > 100 µM | > 100 µM | > 100 µM | > 100 µM | > 100 µM | > 100 µM | > 100 µM | > 100 µM |  |  |  |  |  |  |  |  |  | 
O=C(COC(=O)c1cccc2c(=O)c3ccccc3[nH]c12)Nc1ccc(C(=O)O)cc1 | > 100 µM | > 10 µM | > 100 µM | > 100 µM | > 100 µM | > 100 µM | > 100 µM | > 100 µM |  |  |  |  |  |  |  |  |  | 
COc1ccc(C(=O)C(c2ccc(OCc3ccccc3)cc2)c2ccc(OCc3ccccc3)cc2)cc1 | > 100 µM | > 100 µM | > 100 µM |  | > 100 µM | > 100 µM | > 100 µM | > 100 µM |  |  |  |  |  |  |  |  |  | 
COc1cc2c(cc1OC)C1Cc3cc(OC)c(OC)cc3C(C2)N1C | > 100 µM | > 75 µM | > 100 µM | > 100 µM | > 100 µM | > 100 µM | > 100 µM | > 100 µM | > 75 µM | > 75 µM |  |  |  |  |  |  |  | 
c1ccc2c(c1)N=C(c1cccc3ccccc13)CC(c1ccc3c(c1)OCO3)S2 (configuration not stated) | > 100 µM | > 100 µM | > 100 µM | > 100 µM | > 100 µM | > 100 µM | > 100 µM | > 100 µM |  |  |  |  |  |  |  |  |  | 
CC#CC1C2CCCC1(CSc1ccccc1)NC(=O)O2 (configuration not stated) | > 100 µM | > 100 µM | > 100 µM | > 100 µM | > 100 µM | > 100 µM | > 100 µM | > 100 µM |  |  |  |  |  |  |  |  |  | 
COc1ccc(C2C(C)C(=O)C(C)C(c3ccc(OC)cc3)N2N=O)cc1 (configuration not stated) | > 1000 µM | > 75 µM and 457 µM | > 1000 µM | > 40.9 µM and 424 µM | 750 µM and 428 µM | 750 µM and > 873 µM | > 1000 µM | > 1000 µM | 637 µM | > 1000 µM | > 88.4 µM | > 750 µM | 35 µM and 85.9 µM | > 71 µM and 73.1 µM | > 750 µM | > 750 µM |  | 
CC(C)NC(=O)CCN(C(=O)O)S(=O)(=O)c1ccc(NC(=O)c2ccccc2)cc1 | > 100 µM | > 100 µM | > 72.6 µM | > 100 µM | 32.1 µM | > 100 µM | > 100 µM | > 100 µM |  |  |  |  |  |  |  |  |  | 
CC(=O)[CH-]C(=O)c1ccccc1.CC(=O)[CH-]C(=O)c1ccccc1.C[C@]12CCC(=O)C=C1CC[C@@H]1C2CC[C@@]2(C)C1CC[C@@H]2[O-].C[C@]12CCC(=O)C=C1CC[C@@H]1C2CC[C@@]2(C)C1CC[C@@H]2[O-].Cl.[Ti+4] (some centres not stated) | 34.1 µM | 35.2 µM | 45.9 µM | 30.8 µM |  |  | 70.6 µM | > 100 µM |  |  | 12.9 µM | 18.3 µM |  |  | 23.4 µM | 20.8 µM | 13.1 µM | 16.5 µM
CCNC(=O)O/N=C1\CCC2[C@@H]3CC=C4C[C@@H](OC5CCCCO5)CC[C@]4(C)C3CC[C@]12C (some centres not stated) | 12.4 µM |  | > 100 µM | > 100 µM | 4.29 µM | 9.94 µM | 6.07 µM |  |  |  |  |  |  |  |  |  |  | 
OCCN1CCN2C=C(C3CCCC4N(CCO)CCN34)CCC21 (configuration not stated) | > 100 µM | > 100 µM | > 100 µM | > 100 µM | > 100 µM | > 100 µM | > 100 µM | > 100 µM |  |  |  |  |  |  |  |  |  | 
Cc1ccccc1-n1c2nc(=O)n(C)c(=O)c-2nc2ccccc21 | 21.9 µM | 45 µM | 42.4 µM | 79.1 µM | 33.2 µM | 28.8 µM | 26.6 µM | 26.6 µM |  |  |  |  |  |  |  |  |  | 
Cc1ccc(NC(=O)/C(Cl)=C(/Cl)C(=O)O)cc1 | 40.3 µM | > 100 µM | 33.5 µM | > 100 µM | 30.9 µM | > 100 µM | 32.5 µM | 33.1 µM |  |  |  |  |  |  |  |  |  | 
CN1CCN(C)C12C=CC=CC21CC1 | > 100 µM | > 100 µM | > 100 µM | > 100 µM | > 100 µM | > 100 µM | > 100 µM | > 100 µM |  |  |  |  |  |  |  |  |  | 
Clc1ccc(-c2c(C3=NCCCN3)nnn2-c2ccccc2)cc1 | > 100 µM | > 100 µM | > 100 µM | > 100 µM | > 100 µM | > 100 µM | > 100 µM | > 100 µM |  |  |  |  |  |  |  |  |  | 
NN1C(=O)C(CCO)S/C1=N/N=C1/SC(CCO)C(=O)N1N (configuration not stated) | > 100 µM | > 100 µM | > 100 µM | > 100 µM | > 100 µM | > 100 µM | > 100 µM | > 100 µM |  |  |  |  |  |  |  |  |  | 
NNC(=O)N/N=C1\C(=O)N(c2ccc(Cl)c(Cl)c2)C(=O)C(=O)C1c1nc2ccccc2s1 (configuration not stated) | > 100 µM | > 100 µM | > 100 µM | > 100 µM | > 100 µM | > 100 µM | > 100 µM | > 100 µM |  |  |  |  |  |  |  |  |  | 
